Measured values as given in patent publication US8716242B2, “β-hairpin peptidomimetics” (priority 2009, dated 2014).
Numbered stars: 1 amine (or outer) side, 2 acyl side, 3 side chain; on linkers, the order of the positions; unused ones are H or OH. Bridge positions count the residues as written; N and C are the ends. Square brackets hold non-standard residues; d marks the D form. Side chains are listed from the residue outwards. Peptide text beside a SMILES is read from it. * marks the point of attachment. γGlu = O=C(O)[C@H](CCC(=O)[*:2])N[*:1]; Palmitoyl = CCCCCCCCCCCCCCCC(=O)*; Myristoyl = CCCCCCCCCCCCCC(=O)*; Lauroyl = CCCCCCCCCCCC(=O)*; Dab = NCC[C@H](N)C(=O)O

Assay: Cytotoxicity, MTT reduction assay, HELA cells
Format: cell-based
Details: human, HELA cells (Acc57), 12.5-50 μM
In short: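 HELA (4000/well) and COS-7 (3400/well) cells were grown 24 h, then exposed 48 h at 37° C to peptides at 12.5, 25 and 50 μM in triplicate. MTT reduction read at 595 nm; growth % relative to time-zero, and GI50 interpolated by trend line.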
Work on `CCCCCCCCCCCC(=O)NCCCC[C@@H]1NC(=O)[C@H](Cc2ccc(O)cc2)NC(=O)[C@@H]2CSSC[C@H](NC(=O)[C@H](C)NC(=O)[C@H](Cc3c[nH]cn3)NC(=O)[C@H](Cc3ccc(O)cc3)NC(=O)[C@@H]3CCCN3C(=O)[C@H]3CCCN3C(=O)[C@H](CCCCN)NC1=O)C(=O)N[C@@H](CCCNC(=N)N)C(=O)N[C@@H](C)C(=O)N1CCC[C@@H]1C(=O)N[C@@H](CCN)C(=O)N[C@@H](CCCNC(=N)N)C(=O)N[C@@H](Cc1ccc(O)cc1)C(=O)N2` [Ex. 17] (cyclo(YHACRA[dP][Dab]RYCYK(Lauroyl)K[dP]P); disulfide 4-11) yielded a GI50 at 48 h of over 44 µM. Compound `CCCCCCCCCCCCCCCC(=O)NCCCC[C@@H]1NC(=O)[C@H](Cc2ccc(O)cc2)NC(=O)[C@@H]2CSSC[C@H](NC(=O)[C@H](Cc3ccc(O)cc3)NC(=O)[C@H](Cc3c[nH]cn3)NC(=O)[C@H](Cc3ccc(O)cc3)NC(=O)[C@@H]3CCCN3C(=O)[C@H]3CCCN3C(=O)[C@H](CCCCN)NC1=O)C(=O)N[C@@H](CO)C(=O)N[C@@H](C)C(=O)N1CCC[C@@H]1C(=O)N[C@@H](CCN)C(=O)N[C@@H](CCCNC(=N)N)C(=O)N[C@@H](Cc1ccc(O)cc1)C(=O)N2` [Ex. 20] (cyclo(YHYCSA[dP][Dab]RYCYK(Palmitoyl)K[dP]P); disulfide 4-11) has a GI50 at 48 h of over 31 µM. For `CCCCCCCCCCCC(=O)N[C@@H](CCC(=O)NCCCC[C@@H]1NC(=O)[C@H](Cc2ccc(O)cc2)NC(=O)[C@@H]2CSSC[C@H](NC(=O)[C@H](Cc3ccc(O)cc3)NC(=O)[C@H](Cc3c[nH]cn3)NC(=O)[C@H](Cc3ccc(O)cc3)NC(=O)[C@@H]3CCCN3C(=O)[C@H]3CCCN3C(=O)[C@H](CCCCN)NC1=O)C(=O)N[C@@H](CO)C(=O)N[C@@H](C)C(=O)N1CCC[C@@H]1C(=O)N[C@@H](CCN)C(=O)N[C@@H](CCCNC(=N)N)C(=O)N[C@@H](Cc1ccc(O)cc1)C(=O)N2)C(=O)O` [Ex. 25] (cyclo(YHYCSA[dP][Dab]RYCYK([γGlu-Lauroyl])K[dP]P); disulfide 4-11), the GI50 at 48 h was over 43 µM. With `CCCCCCCCCCCC(=O)N[C@@H](CCC(=O)NCCCC[C@@H]1NC(=O)[C@H](Cc2ccc(O)cc2)NC(=O)[C@@H]2CSSC[C@H](NC(=O)[C@H](C)NC(=O)[C@H](Cc3c[nH]cn3)NC(=O)[C@H](Cc3ccc(O)cc3)NC(=O)[C@@H]3CCCN3C(=O)[C@H]3CCCN3C(=O)[C@H](CCCCN)NC1=O)C(=O)N[C@@H](CCCNC(=N)N)C(=O)N[C@@H](C)C(=O)N1CCC[C@@H]1C(=O)N[C@@H](CCN)C(=O)N[C@@H](CCCNC(=N)N)C(=O)N[C@@H](Cc1ccc(O)cc1)C(=O)N2)C(=O)O` [Ex. 26] (cyclo(YHACRA[dP][Dab]RYCYK([γGlu-Lauroyl])K[dP]P); disulfide 4-11) the GI50 at 48 h was over 50 µM. Work on `CCCCCCCCCCCCCC(=O)N[C@@H](CCC(=O)NCCCC[C@@H]1NC(=O)[C@H](Cc2ccc(O)cc2)NC(=O)[C@@H]2CSSC[C@H](NC(=O)[C@H](Cc3ccc(O)cc3)NC(=O)[C@H](Cc3c[nH]cn3)NC(=O)[C@H](Cc3ccc(O)cc3)NC(=O)[C@@H]3CCCN3C(=O)[C@H]3CCCN3C(=O)[C@H](CCCCN)NC1=O)C(=O)N[C@@H](CO)C(=O)N[C@@H](C)C(=O)N1CCC[C@@H]1C(=O)N[C@@H](CCN)C(=O)N[C@@H](CCCNC(=N)N)C(=O)N[C@@H](Cc1ccc(O)cc1)C(=O)N2)C(=O)O` [Ex. 28] (cyclo(YHYCSA[dP][Dab]RYCYK([γGlu-Myristoyl])K[dP]P); disulfide 4-11) yielded a GI50 at 48 h of over 39 µM. With `CCCCCCCCCCCCCCCC(=O)N[C@@H](CCC(=O)NCCCC[C@@H]1NC(=O)[C@H](Cc2ccc(O)cc2)NC(=O)[C@@H]2CSSC[C@H](NC(=O)[C@H](Cc3ccc(O)cc3)NC(=O)[C@H](Cc3c[nH]cn3)NC(=O)[C@H](Cc3ccc(O)cc3)NC(=O)[C@@H]3CCCN3C(=O)[C@H]3CCCN3C(=O)[C@H](CCCCN)NC1=O)C(=O)N[C@@H](CO)C(=O)N[C@@H](C)C(=O)N1CCC[C@@H]1C(=O)N[C@@H](CCN)C(=O)N[C@@H](CCCNC(=N)N)C(=O)N[C@@H](Cc1ccc(O)cc1)C(=O)N2)C(=O)O` [Ex. 29] (cyclo(YHYCSA[dP][Dab]RYCYK([γGlu-Palmitoyl])K[dP]P); disulfide 4-11) the GI50 at 48 h was over 47 µM.
